PMC6458995, “MAP4K4 Inhibition Promotes Survival of Human Stem Cell-Derived Cardiomyocytes and Reduces Infarct Size In Vivo” (Cell Stem Cell, 2019)

Experiments:
Assay in all cases: Dundee kinase panel
Format in all cases: biochemical
Conditions in all cases: for remaining activity at 1 µM: read-out: residual activity
PKA = molecular target: T1, PKA (Homo sapiens, UniProt P17612)
T1 construct: lines 1-140) and Reaction Biology
Protocol: (§1) Compounds were screened at 1 μM. For key hits, pIC50 values were then determined by HTRF as above. […] Stability in mouse and human liver microsomes was determined by Cyprotex.

ERK1 = molecular target: T2, ERK1 (Homo sapiens, UniProt P27361)
T2 construct: lines 1-140) and Reaction Biology
T2 sequence (P27361 whole entry): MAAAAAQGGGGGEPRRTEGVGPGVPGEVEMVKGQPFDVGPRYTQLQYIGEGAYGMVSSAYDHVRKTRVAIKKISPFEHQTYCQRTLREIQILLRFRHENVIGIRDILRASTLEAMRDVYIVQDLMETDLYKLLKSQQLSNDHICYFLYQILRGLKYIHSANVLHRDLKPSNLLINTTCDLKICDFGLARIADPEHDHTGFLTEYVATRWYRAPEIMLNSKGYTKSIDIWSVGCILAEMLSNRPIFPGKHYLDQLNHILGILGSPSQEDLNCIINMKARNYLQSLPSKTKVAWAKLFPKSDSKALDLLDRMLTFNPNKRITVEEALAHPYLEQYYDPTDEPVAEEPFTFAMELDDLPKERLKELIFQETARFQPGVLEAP
Protocol: as §1

EF2K = molecular target: T3, EF2K (Homo sapiens, UniProt O00418)
T3 construct: lines 1-140) and Reaction Biology
T3 sequence (O00418 1-725): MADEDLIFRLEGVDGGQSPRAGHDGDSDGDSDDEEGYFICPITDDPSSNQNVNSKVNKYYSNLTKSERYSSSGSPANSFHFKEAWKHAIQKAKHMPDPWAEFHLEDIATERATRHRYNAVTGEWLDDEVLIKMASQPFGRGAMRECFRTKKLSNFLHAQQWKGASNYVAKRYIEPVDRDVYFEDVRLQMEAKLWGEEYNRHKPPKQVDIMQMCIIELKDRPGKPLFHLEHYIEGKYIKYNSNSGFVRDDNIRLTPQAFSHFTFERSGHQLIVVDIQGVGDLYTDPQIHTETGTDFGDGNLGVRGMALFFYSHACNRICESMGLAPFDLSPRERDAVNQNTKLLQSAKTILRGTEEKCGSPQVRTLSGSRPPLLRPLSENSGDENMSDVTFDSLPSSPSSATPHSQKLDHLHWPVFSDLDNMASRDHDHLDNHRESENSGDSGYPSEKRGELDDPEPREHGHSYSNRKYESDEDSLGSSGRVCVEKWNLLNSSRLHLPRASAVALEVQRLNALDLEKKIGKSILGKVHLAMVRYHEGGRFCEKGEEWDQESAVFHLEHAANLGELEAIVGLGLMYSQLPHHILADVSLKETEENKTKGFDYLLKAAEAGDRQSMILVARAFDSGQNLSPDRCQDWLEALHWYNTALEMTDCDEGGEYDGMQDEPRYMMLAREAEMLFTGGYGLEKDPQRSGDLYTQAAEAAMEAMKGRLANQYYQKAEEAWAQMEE
Protocol: as §1

MARK4 = molecular target: T4, MARK4 (Homo sapiens, UniProt Q96L34)
T4 construct: lines 1-140) and Reaction Biology
T4 sequence (Q96L34 1-752): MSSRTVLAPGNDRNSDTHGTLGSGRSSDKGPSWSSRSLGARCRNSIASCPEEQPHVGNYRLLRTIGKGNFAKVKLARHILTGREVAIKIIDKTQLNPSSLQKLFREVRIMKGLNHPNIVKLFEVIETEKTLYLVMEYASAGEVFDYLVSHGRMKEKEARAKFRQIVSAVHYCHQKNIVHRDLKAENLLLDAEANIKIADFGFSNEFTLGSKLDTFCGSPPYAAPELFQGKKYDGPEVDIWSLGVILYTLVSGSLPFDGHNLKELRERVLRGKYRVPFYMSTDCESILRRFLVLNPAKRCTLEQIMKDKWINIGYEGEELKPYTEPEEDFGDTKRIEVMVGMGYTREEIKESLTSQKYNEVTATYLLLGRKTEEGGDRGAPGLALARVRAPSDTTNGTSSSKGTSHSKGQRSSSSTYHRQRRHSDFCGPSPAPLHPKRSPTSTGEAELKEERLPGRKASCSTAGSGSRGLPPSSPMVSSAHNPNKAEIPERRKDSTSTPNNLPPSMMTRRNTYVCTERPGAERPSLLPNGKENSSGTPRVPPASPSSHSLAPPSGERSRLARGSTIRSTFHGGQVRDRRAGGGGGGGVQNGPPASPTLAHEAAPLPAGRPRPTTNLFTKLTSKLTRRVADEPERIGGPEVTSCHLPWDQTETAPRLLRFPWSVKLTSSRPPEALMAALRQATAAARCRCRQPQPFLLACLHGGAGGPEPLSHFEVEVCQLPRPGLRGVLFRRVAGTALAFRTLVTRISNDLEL
Protocol: as §1

EPH-A4 = molecular target: T5, EPH-A4 (Homo sapiens, UniProt P54764)
T5 construct: lines 1-140) and Reaction Biology
T5 sequence (P54764 20-986): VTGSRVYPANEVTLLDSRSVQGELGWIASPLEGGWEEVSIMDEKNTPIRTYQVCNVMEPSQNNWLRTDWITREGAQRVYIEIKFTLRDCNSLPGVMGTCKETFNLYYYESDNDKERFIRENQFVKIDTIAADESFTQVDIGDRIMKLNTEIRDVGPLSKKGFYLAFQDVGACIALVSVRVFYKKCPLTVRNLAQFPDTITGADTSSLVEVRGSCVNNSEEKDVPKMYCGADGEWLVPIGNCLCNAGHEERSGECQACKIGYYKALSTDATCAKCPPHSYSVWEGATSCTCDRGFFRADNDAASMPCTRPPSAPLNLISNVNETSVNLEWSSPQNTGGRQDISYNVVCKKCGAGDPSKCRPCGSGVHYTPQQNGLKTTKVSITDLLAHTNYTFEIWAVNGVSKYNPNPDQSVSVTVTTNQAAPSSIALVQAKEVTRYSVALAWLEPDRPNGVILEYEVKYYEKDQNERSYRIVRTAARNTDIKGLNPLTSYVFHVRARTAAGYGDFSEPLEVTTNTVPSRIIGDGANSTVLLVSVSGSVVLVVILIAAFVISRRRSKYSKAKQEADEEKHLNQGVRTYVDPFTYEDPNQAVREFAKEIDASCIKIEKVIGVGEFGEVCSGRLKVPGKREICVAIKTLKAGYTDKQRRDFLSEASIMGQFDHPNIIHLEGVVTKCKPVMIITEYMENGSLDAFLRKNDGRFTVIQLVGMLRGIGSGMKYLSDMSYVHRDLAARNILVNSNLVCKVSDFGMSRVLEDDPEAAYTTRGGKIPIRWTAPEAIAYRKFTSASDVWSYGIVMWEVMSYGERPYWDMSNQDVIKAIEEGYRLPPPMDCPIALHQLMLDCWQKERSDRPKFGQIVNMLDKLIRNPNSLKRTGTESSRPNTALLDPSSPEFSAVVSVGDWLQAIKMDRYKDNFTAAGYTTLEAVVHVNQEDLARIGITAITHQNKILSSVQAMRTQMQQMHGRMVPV
Protocol: as §1

MLK1 = molecular target: T6, MLK1 (Homo sapiens, UniProt P80192)
T6 construct: lines 1-140) and Reaction Biology
T6 sequence (P80192 whole entry): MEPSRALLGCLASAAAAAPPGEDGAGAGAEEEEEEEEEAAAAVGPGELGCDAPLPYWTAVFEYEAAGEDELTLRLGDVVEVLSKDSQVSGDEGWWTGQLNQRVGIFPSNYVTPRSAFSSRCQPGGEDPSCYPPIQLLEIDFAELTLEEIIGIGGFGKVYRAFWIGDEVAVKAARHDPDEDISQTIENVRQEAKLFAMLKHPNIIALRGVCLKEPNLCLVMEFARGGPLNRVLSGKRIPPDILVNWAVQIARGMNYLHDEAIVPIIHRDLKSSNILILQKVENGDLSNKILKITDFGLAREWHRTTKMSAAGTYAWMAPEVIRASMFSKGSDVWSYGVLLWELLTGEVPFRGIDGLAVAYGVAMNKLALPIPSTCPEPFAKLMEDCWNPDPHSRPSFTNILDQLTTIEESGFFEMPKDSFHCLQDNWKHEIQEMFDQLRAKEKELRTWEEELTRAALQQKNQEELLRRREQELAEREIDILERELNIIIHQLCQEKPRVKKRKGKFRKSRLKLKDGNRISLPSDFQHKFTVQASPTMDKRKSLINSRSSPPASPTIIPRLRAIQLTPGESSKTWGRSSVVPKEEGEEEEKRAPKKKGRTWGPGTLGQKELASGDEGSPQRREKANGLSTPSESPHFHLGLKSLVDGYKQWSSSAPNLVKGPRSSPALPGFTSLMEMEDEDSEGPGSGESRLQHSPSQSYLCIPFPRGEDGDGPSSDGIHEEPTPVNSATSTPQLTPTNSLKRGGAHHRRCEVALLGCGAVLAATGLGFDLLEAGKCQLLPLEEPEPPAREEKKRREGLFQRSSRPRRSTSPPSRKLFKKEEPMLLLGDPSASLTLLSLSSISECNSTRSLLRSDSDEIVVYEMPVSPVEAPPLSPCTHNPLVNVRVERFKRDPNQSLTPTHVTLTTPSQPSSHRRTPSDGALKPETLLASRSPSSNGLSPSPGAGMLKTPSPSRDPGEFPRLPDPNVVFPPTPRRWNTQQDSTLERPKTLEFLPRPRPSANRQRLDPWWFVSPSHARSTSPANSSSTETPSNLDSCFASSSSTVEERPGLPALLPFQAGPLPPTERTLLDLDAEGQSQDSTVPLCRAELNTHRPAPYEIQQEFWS
Protocol: as §1

CK1δ = molecular target: T7, CK1δ (Homo sapiens, UniProt P48730)
T7 construct: lines 1-140) and Reaction Biology
T7 sequence (P48730 whole entry): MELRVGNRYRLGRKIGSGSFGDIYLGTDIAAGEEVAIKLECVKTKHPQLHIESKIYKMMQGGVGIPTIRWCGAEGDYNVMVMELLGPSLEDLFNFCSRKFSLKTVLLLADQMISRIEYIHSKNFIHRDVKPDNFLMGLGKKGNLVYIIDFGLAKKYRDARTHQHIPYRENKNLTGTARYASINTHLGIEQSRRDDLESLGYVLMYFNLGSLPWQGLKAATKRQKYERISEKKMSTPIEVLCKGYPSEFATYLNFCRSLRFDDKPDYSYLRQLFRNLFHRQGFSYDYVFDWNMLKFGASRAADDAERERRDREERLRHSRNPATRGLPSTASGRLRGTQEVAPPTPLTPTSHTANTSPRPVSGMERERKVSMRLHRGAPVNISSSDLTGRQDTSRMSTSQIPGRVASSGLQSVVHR
Protocol: as §1

HIPK1 = molecular target: T8, HIPK1 (Homo sapiens, UniProt Q86Z02)
T8 construct: lines 1-140) and Reaction Biology
T8 sequence (Q86Z02 whole entry): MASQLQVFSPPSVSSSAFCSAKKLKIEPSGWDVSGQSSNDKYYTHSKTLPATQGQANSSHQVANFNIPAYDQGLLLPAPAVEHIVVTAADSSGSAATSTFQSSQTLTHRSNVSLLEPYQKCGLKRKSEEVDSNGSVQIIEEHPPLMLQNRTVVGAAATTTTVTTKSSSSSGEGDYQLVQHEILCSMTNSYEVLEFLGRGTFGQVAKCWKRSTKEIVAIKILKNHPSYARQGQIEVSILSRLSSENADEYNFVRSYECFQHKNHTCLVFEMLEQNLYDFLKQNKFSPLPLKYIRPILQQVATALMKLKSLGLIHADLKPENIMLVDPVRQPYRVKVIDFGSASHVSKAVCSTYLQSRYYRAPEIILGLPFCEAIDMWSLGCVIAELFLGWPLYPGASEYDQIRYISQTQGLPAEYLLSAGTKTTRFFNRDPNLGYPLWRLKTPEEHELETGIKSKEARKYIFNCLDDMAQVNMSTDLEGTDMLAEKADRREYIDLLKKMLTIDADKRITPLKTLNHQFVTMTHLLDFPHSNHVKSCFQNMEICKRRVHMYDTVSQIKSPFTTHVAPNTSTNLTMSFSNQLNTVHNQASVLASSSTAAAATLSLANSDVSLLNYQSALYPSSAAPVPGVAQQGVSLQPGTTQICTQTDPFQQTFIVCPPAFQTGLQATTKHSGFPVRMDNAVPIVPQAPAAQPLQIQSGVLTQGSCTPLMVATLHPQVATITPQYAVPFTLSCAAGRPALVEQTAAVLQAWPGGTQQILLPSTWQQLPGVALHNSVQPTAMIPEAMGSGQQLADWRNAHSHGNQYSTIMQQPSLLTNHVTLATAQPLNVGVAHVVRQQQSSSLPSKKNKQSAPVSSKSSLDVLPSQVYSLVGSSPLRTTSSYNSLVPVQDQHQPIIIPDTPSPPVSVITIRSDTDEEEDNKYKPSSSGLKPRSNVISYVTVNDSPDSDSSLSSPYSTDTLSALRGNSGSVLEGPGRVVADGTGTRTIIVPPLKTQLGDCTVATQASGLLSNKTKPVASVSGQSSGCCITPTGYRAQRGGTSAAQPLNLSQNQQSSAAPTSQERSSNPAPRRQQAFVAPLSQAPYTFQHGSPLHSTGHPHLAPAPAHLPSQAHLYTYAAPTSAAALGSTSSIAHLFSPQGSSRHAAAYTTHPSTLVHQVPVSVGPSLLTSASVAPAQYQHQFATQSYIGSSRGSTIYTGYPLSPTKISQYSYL
Protocol: as §1

MST2 = molecular target: T9, MST2 (Homo sapiens, UniProt Q13188)
T9 construct: lines 1-140) and Reaction Biology
T9 sequence (Q13188 1-491): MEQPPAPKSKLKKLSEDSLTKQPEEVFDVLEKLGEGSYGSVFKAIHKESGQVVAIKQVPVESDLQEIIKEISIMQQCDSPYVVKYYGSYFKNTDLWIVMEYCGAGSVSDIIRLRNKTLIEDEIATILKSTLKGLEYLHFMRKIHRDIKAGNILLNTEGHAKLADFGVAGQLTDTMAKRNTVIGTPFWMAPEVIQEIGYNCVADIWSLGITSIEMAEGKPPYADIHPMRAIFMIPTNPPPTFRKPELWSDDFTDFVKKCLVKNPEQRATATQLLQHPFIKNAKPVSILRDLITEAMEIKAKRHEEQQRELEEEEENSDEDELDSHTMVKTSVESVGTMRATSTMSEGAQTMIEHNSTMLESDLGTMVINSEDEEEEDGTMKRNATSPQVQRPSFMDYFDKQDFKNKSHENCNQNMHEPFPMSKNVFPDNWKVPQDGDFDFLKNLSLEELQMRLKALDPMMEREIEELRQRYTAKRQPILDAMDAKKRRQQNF
Protocol: as §1

Structure (SMILES)	remaining activity at 1 µM (PKA)	remaining activity at 1 µM (ERK1)	remaining activity at 1 µM (EF2K)	remaining activity at 1 µM (MARK4)	remaining activity at 1 µM (EPH-A4)	remaining activity at 1 µM (MLK1)	remaining activity at 1 µM (CK1δ)	remaining activity at 1 µM (HIPK1)	remaining activity at 1 µM (MST2)	residual activity (PKA; 1 μM)	residual activity (ERK1; 1 μM)	residual activity (EF2K; 1 μM)	residual activity (MARK4; 1 μM)	residual activity (EPH-A4; 1 μM)	residual activity (MLK1; 1 μM)	residual activity (CK1δ; 1 μM)	residual activity (HIPK1; 1 μM)	residual activity (MST2; 1 μM)
COCCOc1ccc(-c2cn(-c3ccccc3)c3nc[nH]c(=O)c23)cc1 [DMX-5804, 5-[4-(2-methoxy-ethoxy)-phenyl]-7-phenyl-3,7-dihydro-pyrrolo[2,3-d]pyrimidin-4-one]	109%	107%	104%	99%	105%	9%	94%	109%	46%	–	–	–	–	–	–	–	–	–
Oc1ncnc2c1c(-c1ccccc1)cn2-c1ccccc1 [F1386-0303, 5,7-diphenyl-7H-pyrrolo[2,3-d]pyrimidin-4-ol]	103%	124%	99%	96%	92%	43%	107%	54%	63%	–	–	–	–	–	–	–	–	–
Nc1ncc(C(=O)NC2CN(C(=O)C3CC3)C2)c2ccc(-c3cccc(F)c3)nc12 [GNE-495]	–	–	–	–	–	–	–	–	–	95%	143%	120%	51%	72%	25%	65%	97%	76%
O=C1Nc2ccc(I)cc2/C1=C/c1cc(Br)c(O)c(Br)c1 [GW5074]	83%	87%	57%	50%	91%	85%	88%	84%	93%	–	–	–	–	–	–	–	–	–
O=C1Cc2c([nH]c3ccc(Br)cc23)-c2ccccc2N1 [Kenpaullone]	105%	78%	97%	39%	96%	99%	104%	102%	63%	–	–	–	–	–	–	–	–	–
